21 compounds from patent US20240199630A1, “IMIDAZO[1,2-B]PYRIDAZINE BASED TRICYCLIC COMPOUNDS AS INHIBITORS OF HASPIN AND THERAPEUTIC USES THEREOF” (FUNDACIÓN DEL SECTOR PÚBLICO ESTATAL CENTRO NACIONAL DE …, priority 2021, published 2024) can be followed below.

SMILES strings stand for the structures. Some results are limits rather than exact numbers.

Chain of HASPIN (Q8TF76 whole entry): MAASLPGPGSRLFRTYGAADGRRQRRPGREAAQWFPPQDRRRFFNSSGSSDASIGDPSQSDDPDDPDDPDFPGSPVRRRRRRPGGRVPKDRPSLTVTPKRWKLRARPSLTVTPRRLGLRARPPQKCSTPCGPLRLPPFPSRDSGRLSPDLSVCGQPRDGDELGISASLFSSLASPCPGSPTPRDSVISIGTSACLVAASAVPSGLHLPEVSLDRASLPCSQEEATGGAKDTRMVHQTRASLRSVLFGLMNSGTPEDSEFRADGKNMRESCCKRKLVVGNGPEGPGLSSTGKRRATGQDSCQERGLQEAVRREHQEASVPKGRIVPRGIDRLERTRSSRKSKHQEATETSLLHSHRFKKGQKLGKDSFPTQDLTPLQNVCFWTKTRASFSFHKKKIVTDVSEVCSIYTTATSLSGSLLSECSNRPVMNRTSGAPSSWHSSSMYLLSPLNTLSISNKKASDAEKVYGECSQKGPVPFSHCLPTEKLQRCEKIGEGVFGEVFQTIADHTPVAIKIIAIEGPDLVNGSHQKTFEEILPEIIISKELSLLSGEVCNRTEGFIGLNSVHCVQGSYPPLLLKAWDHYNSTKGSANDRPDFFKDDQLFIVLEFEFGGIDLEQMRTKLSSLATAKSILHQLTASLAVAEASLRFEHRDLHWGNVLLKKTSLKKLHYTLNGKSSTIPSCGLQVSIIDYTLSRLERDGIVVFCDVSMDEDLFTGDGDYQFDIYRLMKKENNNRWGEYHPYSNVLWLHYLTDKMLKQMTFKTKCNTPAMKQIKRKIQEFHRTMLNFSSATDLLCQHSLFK
Chain of PIM1 (P11309 whole entry, species assumed): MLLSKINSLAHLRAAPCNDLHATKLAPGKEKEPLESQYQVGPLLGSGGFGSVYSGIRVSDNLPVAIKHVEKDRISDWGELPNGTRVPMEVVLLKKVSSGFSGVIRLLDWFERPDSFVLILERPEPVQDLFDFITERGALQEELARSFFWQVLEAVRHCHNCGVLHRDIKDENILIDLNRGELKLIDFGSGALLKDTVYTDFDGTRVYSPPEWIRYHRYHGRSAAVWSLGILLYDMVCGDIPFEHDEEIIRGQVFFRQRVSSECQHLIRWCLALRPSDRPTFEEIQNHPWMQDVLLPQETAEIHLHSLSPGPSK
Chain of intracellular HASPIN (phosphorylation of the HASPIN substrate H3T3) (Q8TF76 whole entry): as the sequence (Q8TF76 whole entry) above

One assay has as its target PIM1 (Homo sapiens (Human), UniProt P11309). The experiment in a line: PIM1 activity, methodology of WO2013/005041. Format: biochemical. As to conditions: compounds from the present invention.
Consider `Cc1nc2c3c(c(N4CCCC(CN)C4)nn2c1-c1ccnc(Cl)c1)CCCO3` (centres unmarked) [Compound 2, C-{1-[3-(2-Chloro-pyridin-4-yl)-2-methyl-7,8-dihydro-6H-9-oxa-1,3a,4-triaza-cyclopenta[a]naphthalen-5-yl]-piperidin-3-yl}-methylamine], for which the midpoint of inhibition, the IC50, lay at 3.4 µM.
Still for that read-out and setting: then `Cc1nc2c3c(c(N4CCC[C@@H](CN)C4)nn2c1-c1ccnc(Cl)c1)CCCO3` [Compound 3, C-{(S)-1-[3-(2-Chloro-pyridin-4-yl)-2-methyl-7,8-dihydro-6H-9-oxa-1,3a,4-triaza-cyclopenta[a]naphthalen-5-yl]-piperidin-3-yl}-methylamine], with over 10 µM; and `Cc1nc2c3c(c(N4CCC[C@H](CN)C4)nn2c1-c1ccnc(Cl)c1)CCCO3` [Compound 4, C-{(R)-1-[3-(2-Chloro-pyridin-4-yl)-2-methyl-7,8-dihydro-6H-9-oxa-1,3a,4-triaza-cyclopenta[a]naphthalen-5-yl]-piperidin-3-yl}-methylamine], with 2.27 µM; and `Cc1nc2c3c(c(NCC4(F)CCNCC4)nn2c1-c1ccncc1)CCCO3` [Compound 6, (4-Fluoro-piperidin-4-ylmethyl)-(2-methyl-3-pyridin-4-yl-7,8-dihydro-6H-9-oxa-1,3a,4-triaza-cyclopenta[a]naphthalen-5-yl)-amine], with 3.3 µM.
Same read-out and setting: then `Cc1nc2c3c(c(NCC4CCNCC4)nn2c1-c1ccnc(Cl)c1)N(C)CCO3` [Compound 10, [3-(2-Chloro-pyridin-4-yl)-2,6-dimethyl-7,8-dihydro-6H-9-oxa-1,3a,4,6-tetraaza-cyclopenta[a]naphthalen-5-yl]-piperidin-4-ylmethyl-amine], with 1.09 µM.
On the same count and under the same terms, then `Cc1nc2c3c(c(NCCCCO)nn2c1-c1ccnc(Cl)c1)N(C)CCO3` [Compound 12, 4-[3-(2-Chloro-pyridin-4-yl)-2,6-dimethyl-7,8-dihydro-6H-9-oxa-1,3a,4,6-tetraaza-cyclopenta[a]naphthalen-5-ylamino]-butan-1-ol], with 1.81 µM; and `Cc1nc2c3c(c(N[C@H]4CC[C@@](C)(O)CC4)nn2c1-c1ccncc1)OCCN3C` [Compound 27, 4-(2,9-Dimethyl-3-pyridin-4-yl-8,9-dihydro-7H-6-oxa-1,3a,4,9-tetraaza-cyclopenta[a]naphthalen-5-ylamino)-1-methyl-cyclohexanol], with 3.18 µM.

The target in a further assay is HASPIN (Homo sapiens (Human), UniProt Q8TF76). Nature of the assay: HASPIN biochemical assay (ADP-Glo, HASPIN autophosphorylation). As to conditions: ATP 150 μM, 60 min at 30° C. Here is the method:
HASPIN biochemical Assay: The biochemical assay to measure HASPIN activity relies on the ADP-Glo™ assay kit (Promega) that determines the amount of ADP as direct product of the kinase enzyme activity. Assay conditions were as indicated by the kit manufacturers with the following adaptations for the kinase activity step: Kinase assay buffer and assay volume (15 mM HEPES pH 7.5, 20 mM NaCl, 1 mM EGTA, 0.02% TWEEN 20, 10 mM MgCl2, 0.1 mg/ml BGG)/25 μL assay volume). Incubation time and temperature: 60 min at 30° C. HASPIN final concentration: 0.9 μg/mL. ATP final concentration: 150 μM. HASPIN autophosphorylation was measured. Assays were performed in 384-well plates. The final outcome of the coupled reactions provided by the kit is the release of luciferase and has been measured with a multilabel HTS counter Victor V/Envision. Values were normalized against the control activity included (100% HASPIN activity, without compound). Values were plotted against the inhibitor concentration and fit to a sigmoid dose-response curve using Activity base by IDBS software.
On the technique in general: ADP-Glo turns the ADP formed in a reaction into a luminescent signal.
For `Cc1nc2c3c(c(NCC4(F)CCNCC4)nn2c1-c1ccnc(Cl)c1)CC(C)O3` (racemic) [Compound 33, [3-(2-Chloro-pyridin-4-yl)-2,7-dimethyl-6,7-dihydro-8-oxa-1,3a,4-triaza-as-indacen-5-yl]-(4-fluoro-piperidin-4-ylmethyl)-amine], the IC50 (commonly the midpoint of a concentration-inhibition curve) was 0.00637 µM.
On the same count and under the same terms, then `Cc1nc2c3c(c(NCC4(F)CCNCC4)nn2c1-c1ccnc(Cl)c1)C[C@@H](C)O3` (single isomer, unassigned) [Compound 34], with 0.00587 µM.
The same measure, in the same setting: then `Cc1nc2c3c(c(NCC4(F)CCNCC4)nn2c1-c1ccnc(Cl)c1)C[C@H](C)O3` (single isomer, unassigned) [Compound 35], with 0.0207 µM.

The test system of another assay is MV4:11 (AML cell line). Nature of the assay: Combination viability assay (CellTiter-Glo), Bliss combination index. The note with it: MV4:11 cell line, 72 h; agent 1 μM combined with compound 3 at 2 μM; CI<1 synergism.
Method: The cells were harvested just before reaching confluency, counted with a haemocytometer and diluted with media. Cells were then seeded in 96-well microtiter plates at a density of 5,000 cells/well. Cells were incubated for 24 hours before adding the compounds. Compounds were weighed out and diluted with DMSO to a final concentration of 10 mM. From here a “mother plate” was prepared at 200X the final concentration in the culture. The final concentration of DMSO in the tissue culture media should not exceed 1%. […] Each compound was assayed in duplicate. Cells were exposed to the compounds for 72 h and then processed for CellTiter-Glo® Luminescent Cell Viability Assay (Promega) read out according to manufacturer's Instruction and read on EndVision (Perkin Elmer). Percentage of viability inhibition was calculated using ActivityBase from IDBS. Potential synergy between drugs was evaluated by calculating the combination index (CI) based on the Bliss Independence model, whereby the CI was calculated with the following equation:
where Ea indicates the viability effect of drug A, Eb indicates the viability effect of drug B and Eab indicates the viability effect of the drug combination. CI<1 indicates synergism, CI=1 indicates additivity and CI>1 indicates antagonism.
On to `Cc1nc(NC(=O)N2CCC[C@H]2C(N)=O)sc1-c1ccnc(C(C)(C)C(F)(F)F)c1` [BYL-719, Alpelisib], for which the “CI (combination index)” value was determined as 0.59.
Take `CC[C@H](Nc1ncnc2[nH]cnc12)c1nc2cccc(F)c2c(=O)n1-c1ccccc1` [CAL-101, IDELALISIB, Idelalisib]: the “CI (combination index)” value stood at 0.67.
Still for that read-out and setting: then `CCN(CC)C(=S)SSC(=S)N(CC)CC` [Disulfiram], with 0.67.
Regarding `CN(NC(=O)CC(=O)NN(C)C(=S)c1ccccc1)C(=S)c1ccccc1` [ELESCLOMOL, Elesclomol], the “CI (combination index)” value was found to be 0.78.
On to `C#Cc1cccc(Nc2ncnc3cc(OCCOC)c(OCCOC)cc23)c1` [ERLOTINIB, Erlotinib], for which the “CI (combination index)” value is given as 0.62.
Still for that read-out and setting: then `C[C@]12CC[C@@H]3c4ccc(O)cc4C[C@@H](CCCCCCCCC[S+]([O-])CCCC(F)(F)C(F)(F)F)[C@H]3[C@@H]1CC[C@@H]2O` (some centres unmarked) [Fulvestrant], with 0.60; and `CS(=O)(=O)N1CCN(Cc2cc3nc(-c4cccc5[nH]ncc45)nc(N4CCOCC4)c3s2)CC1` [GDC-0941, Pictilisib], with 0.85; and `NC1(c2ccc(-c3nc4ccn5c(=O)[nH]nc5c4cc3-c3ccccc3)cc2)CCC1` [MK-2206], with 0.64.
The same measure, in the same setting: then `Cc1ccc(Nc2nccc(N(C)c3ccc4c(C)n(C)nc4c3)n2)cc1S(N)(=O)=O` [Pazopanib], with 0.57; and `O=C(CCCCCCNC(=O)c1cnc(N(c2ccccc2)c2ccccc2)nc1)NO` [Ricolinostat, ACY-1215, Ricolinostat], with 0.69.
Same read-out and setting: then `CC(C)[C@H](O)C(=O)N[C@@H](C)C(=O)N[C@@H]1C(=O)N(C)CCc2ccccc21` [Semagacestat], with 0.53.

The next assay deals with intracellular HASPIN (phosphorylation of the HASPIN substrate H3T3) (Homo sapiens (Human), UniProt Q8TF76). Nature of the assay: Cellular HASPIN inhibition assay (phosphorylation of H3T3), western blot in MV4:11 cells. The assay is classed as cell-based. As to conditions: 8 hours of treatment, read-out: pH3T3 EC50. The protocol:
10 min. The protein content of the lysates is determined by DC protein assay (Biorad, Ref. 5000116).
In general terms: Immunoblotting shows a protein as a band on a membrane.
With `Cc1nc2c3c(c(NCC4(F)CCNCC4)nn2c1-c1ccnc(Cl)c1)C[C@@H](C)O3` (single isomer, unassigned) [Compound 34], the half-maximal effective concentration (EC50) – broadly, the concentration that produces a half-maximal response – is under 0.05 µM.
Turning to `Cc1nc2c3c(c(NCC4(F)CCNCC4)nn2c1-c1ccnc(Cl)c1)C[C@H](C)O3` (single isomer, unassigned) [Compound 35], the EC50 was under 0.05 µM.
